# Reference: publication PMC12677653, “Inhibition of Tumor Lipogenesis and Growth by Peptide‐Based Targeting of SREBP Activation” (Advanced Science, 2025)
# Key:
# [1] = biological target: T1, binding of PCK1 to Insig1 (Homo sapiens, UniProt P35558); experiment: Immunoprecipitation of IGF1-induced PCK1-Insig1 binding, Huh7; format: cell-based; parameters: expressed in transfected cells; host or cells: Huh7; conditions: Flag-PCK1-expressing Huh7 cells, peptide 15 µM 1 h before IGF1 100 ng/mL
# T1 sequence (P35558 1-622): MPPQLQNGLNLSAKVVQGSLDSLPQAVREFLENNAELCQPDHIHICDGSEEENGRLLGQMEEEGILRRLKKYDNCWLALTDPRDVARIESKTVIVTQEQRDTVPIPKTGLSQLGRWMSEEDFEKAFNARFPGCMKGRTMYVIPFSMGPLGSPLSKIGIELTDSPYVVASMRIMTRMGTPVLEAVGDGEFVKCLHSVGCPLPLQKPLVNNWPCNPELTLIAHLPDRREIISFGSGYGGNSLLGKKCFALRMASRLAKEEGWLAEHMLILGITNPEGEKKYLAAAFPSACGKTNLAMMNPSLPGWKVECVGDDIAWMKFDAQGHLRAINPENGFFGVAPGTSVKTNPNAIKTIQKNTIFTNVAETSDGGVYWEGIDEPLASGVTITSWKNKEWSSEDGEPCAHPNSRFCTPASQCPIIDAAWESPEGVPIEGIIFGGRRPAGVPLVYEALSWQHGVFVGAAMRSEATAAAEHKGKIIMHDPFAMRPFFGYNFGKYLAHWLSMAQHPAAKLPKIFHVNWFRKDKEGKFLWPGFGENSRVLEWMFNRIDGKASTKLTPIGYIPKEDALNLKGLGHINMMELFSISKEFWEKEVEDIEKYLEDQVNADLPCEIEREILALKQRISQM
# Experimental: Figure 1 The Insig1/2 loop 1 peptide binds to S90‐phosphorylated PCK1 and blocks PCK1‐mediated SREBP activation and tumor cell proliferation. Immunoblotting analyses were performed using the indicated antibodies; representative results from three independent experiments are shown (IP, immunoprecipitation; WB, western blot). a) Huh7 cells expressing various Insig1 (top) or Insig2 (bottom) truncation mutants were treated with or without IGF1 (100 ng mL^−1) for 1 h. b,c) Biolayer interferometry assays (Sartorius Octet) were employed to measure the binding affinity of Insig1/2 loop 1 peptide to GST‐PCK1 or GST‐PCK1 pS90 proteins. […] Statistical significance was determined by one‐way analysis of variance (ANOVA). g) Following pretreatment with Insig1/2 loop 1 peptide (15 µM) and IGF1 stimulation (100 ng mL^−1, 8 h), Huh7 cells were subjected to immunofluorescence analysis (scale bar: 10 µm). h) Quantitative PCR analysis of SREBP1 target gene GPAM in Huh7 cells pretreated with Insig1/2 loop 1 peptide (15 µM) and stimulated with IGF1 (100 ng mL^−1) for 10 h. […] Statistical significance was determined by one‐way analysis of variance (ANOVA). i) Quantitative PCR analysis of SREBP1 target gene FASN in Huh7 cells pretreated with Insig1/2 loop 1 peptide (15 µM) and stimulated with IGF1 (100 ng mL^−1) for 10 h. […]
# [2] = Safety in mice: H&E staining of organs and blood examination; format: in vivo; conditions: given iv as LNPs, 10 mg/kg
# Experimental: c-k) The LNP@Insig1/2 loop 1 peptide or PBS (control) was administered intravenously to 6-week-old nude mice (n = 4 per group) at a dose of 10 mg kg^-1 body weight. (c)Mice heart, liver, spleen, lung and kidney were harvested for H&E staining (scale bar: 50 μm). Mouse blood was collected for (d) ALT, (e) AST, (f) ALB, (g) ALP, (h) BUN, (i) UA, (j) CR, (k) CK analysis. ALT, alanine aminotransferase; AST, aspartate transaminase; ALB, albumin; ALP, alkaline phosphatase; BUN, blood urea nitrogen; UA, uric acid; CR, creatinine; CK, creatine kinase. Data are expressed as mean ± SD. Comparisons between the two groups were performed using Student's t-test.
sequence,measurement,setting,value
RKKRRQRRRLYPCIDSHLGEPHKFKRE [Insig1/2 loop 1 peptide],IGF1-induced binding of PCK1 to Insig1,[1],markedly inhibited
same,toxicity (overall conclusion),[2],limited toxicity
